According to patent US8202866B2, “Ortho-aminoanilides for the treatment of cancer” (Hoffmann-La Roche Inc., priority 2008, dated 2012):

What was measured:
[1] = tested on: p21 promoter-luciferase construct in HeLa cells; experiment: p21 reporter gene induction assay, HeLa cells transfected with p21 promoter-luciferase construct; assay type: cell-based; conditions: compound at 3 micromolar; 15 hours incubation; relative to SNDX-275 (=100%)
Experimental: The novel compounds of the present invention were tested for their ability to induce p21 gene expression using a reporter gene assay involving HeLa cells transfected with a p21 promoter-luciferase construct. The p21 promoter contained the Sp1/Sp3 binding site for HDAC but not the upstream p53 binding site. Briefly, the day before transfection, HeLa cells were seeded at 11,000 cells/well in a 96-well culture plate and incubated at 37 degrees Celsius in 5% CO2 overnight. For transfection, the medium was removed and replaced with 100 microliters/well transfection media previously prepared as follows: 5 microliters serum-free DMEM, 0.15 microliters Fugene 6 reagent, 40 ng p21-luc, 10 ng GFP were mixed gently and incubated at room temperature for 30 minutes; then 98 microliters DMEM (with 10% FBS, 1% penicillin and streptomycin) was added to the DNA:Fugene 6 reagent complex and mixed gently. After incubating the cells for 24 hours at 37 degrees Celsius in 5% CO2, fresh media and test compounds were added to the wells and the cells further incubated for 15 hours at 37 degrees Celsius in 5% CO2. Cells were lysed by adding 80 microliters/well of a cell culture lysis reagent (Promega). 50 microliters of each lysate was taken for GFP detection using an excitation wavelength of 486 nm and detection at 527 nm. 100 microliters Luciferase assay reagent (Promega) was then added to every 20 microliters cell lysate for luminometer detection. […] Induction activity for specific representative compounds can be found in Table 7.

[2] = tested on: SMMC-7721 liver cancer cells; experiment: Antiproliferative activity, in vitro growth inhibition assay (MTS/WST), SMMC-7721; assay type: cell-based; conditions: Homo sapiens, 72 hours; for IC90: concentration required for 90% growth inhibition, read-out: GI90 (micromolar) SMMC-7721; for GI50: read-out: GI50 (micromolar) SMMC-7721
Experimental: The novel compounds of the present invention were tested for their ability to inhibit growth of various cancer cell lines using in vitro growth inhibition assays described below.
Cells were seeded in 96-well culture plates (200 microliters/well at different seeding concentrations depending on cell type) and incubated overnight at 37 degrees Celsius in 5% CO2. After adding compound dilutions to the cells (DMSO concentration kept below 0.5%), the cells were incubated at 37 degrees Celsius in 5% CO2 for 72 hours. The effects on proliferation were determined by addition of MTS reagent (Promega) according to the manufacturer's instruction, followed by incubation for 2 hours at 37 degrees Celsius in 5% CO2, and finally recording the absorbance at 490 nm using an ELISA plate reader.
Similar to MTS assay except that the developer is the CCK-8 reagent (Dojindo) and the plate reader is set to 450 nm absorbance.
GI50 and GI90 values against SMMC-7721 liver cancer cells for specific representative compounds can be found in Table 7.

SMILES	IC90 [2]	GI50 [2]	p21 (RP3): relative induction potency compared with SNDX-275 [1]
Nc1ccccc1NC(=O)/C=C/c1ccc(C(CCN2C[C@@H]3C[C@H]2CO3)C(=O)Nc2ccc(Br)cc2)cc1 (stereo partly drawn) [Example 6, 2-{4-[(E)-2-(2-Amino-phenylcarbamoyl)-vinyl]-phenyl}-N-(4-bromo-phenyl)-4-(1S,4S)-2-oxa-5-aza-bicyclo[2.2.1]hept-5-yl-butyramide]	2.7 µM	0.8 µM	212%
CCN(CC)C1CCN(CC(C(=O)Nc2ccc(Cl)cc2)c2ccc(/C=C/C(=O)Nc3ccccc3N)cc2)C1 (stereo not drawn) [Example 31, (E)-N-(2-Amino-phenyl)-3-{4-[1-(4-chloro-phenylcarbamoyl)-2-(3-diethylamino-pyrrolidin-1-yl)-ethyl]phenyl}-acrylamide]	3.3 µM	0.9 µM	243%
Nc1ccccc1NC(=O)/C=C/c1ccc(C(CCN2CCOCC2)C(=O)Nc2ccc(Br)cc2)cc1 (stereo not drawn) [Example 6-2, 2-{4-[(E)-2-(2-Amino-phenylcarbamoyl)-vinyl]-phenyl}-N-(4-bromo-phenyl)-4-morpholin-4-yl-butyramide]	3.1 µM	1 µM	233%
Nc1ccccc1NC(=O)/C=C/c1ccc(C(CCCN2CCOCC2)C(=O)Nc2ccc(Br)cc2)cc1 (stereo not drawn) [Example 9, 2-{4-[(E)-2-(2-Amino-phenylcarbamoyl)-vinyl]phenyl}-5-morpholin-4-yl-pentanoic acid (4-bromo-phenyl)-amide]	2.9 µM	1.3 µM	253%
CN1CCCC1CCC(C(=O)Nc1ccc(Br)cc1)c1ccc(/C=C/C(=O)Nc2ccccc2N)cc1 (stereo not drawn) [Example 25, 2-{4-[(E)-2-(2-Amino-phenylcarbamoyl)-vinyl]-phenyl}-N-(4-bromo-phenyl)-4-(1-methyl-pyrrolidin-2-yl)-butyramide]	2.5 µM	0.8 µM	199%

The next lines start with results.

IC90 [2]	GI50 [2]	SMILES	p21 (RP3): relative induction potency compared with SNDX-275 [1]
1.5 µM	0.7 µM	Nc1ccccc1NC(=O)/C=C/c1ccc(C(CCCN2C[C@@H]3C[C@H]2CO3)C(=O)Nc2ccc(Br)cc2)cc1 (stereo partly drawn) [Example 9-2, 2-{4-[(E)-2-(2-Amino-phenylcarbamoyl)-vinyl]-phenyl}-5-(1S,4S)-2-oxa-5-aza-bicyclo[2.2.1]hept-5-yl-pentanoic acid (4-bromo-phenyl)-amide]	74%
4.9 µM	1.4 µM	CC(C)c1ccc(NC(=O)C(CCCN2C[C@@H]3C[C@H]2CO3)c2ccc(/C=C/C(=O)Nc3ccccc3N)cc2)cc1 (stereo partly drawn) [Example 9-4, 2-{4-[(E)-2-(2-Amino-phenylcarbamoyl)-vinyl]-phenyl}-5-(1S,4S)-2-oxa-5-aza-bicyclo[2.2.1]hept-5-yl-pentanoic acid (4-isopropyl-phenyl)-amide]	155%
2.1 µM	0.8 µM	Nc1ccccc1NC(=O)/C=C/c1ccc(C(CCCN2CCCCC2)C(=O)Nc2ccc(Br)cc2)cc1 (stereo not drawn) [Example 9-3, 2-{4-[(E)-2-(2-Amino-phenylcarbamoyl)-vinyl]-phenyl}-5-piperidin-1-yl-pentanoic acid (4-bromo-phenyl)-amide]	305%
10.5 µM	3.5 µM	Nc1ccccc1NC(=O)c1ccc(CNC(=O)OCc2cccnc2)cc1 [SNDX-275, reference compound]	100%
3.2 µM	1.1 µM	Nc1ccccc1NC(=O)/C=C/c1ccc(C(CCCN2CCCC(O)C2)C(=O)Nc2ccc(Br)cc2)cc1 (stereo not drawn) [Example 9-5, 2-{4-[(E)-2-(2-Amino-phenylcarbamoyl)-vinyl]-phenyl}-5-(3-hydroxy-piperidin-1-yl)-pentanoic acid (4-bromo-phenyl)-amide]	127%
